By EC50 is commonly meant the concentration that produces a half-maximal response. The solubility is how much of the substance goes into solution per volume. As usually defined, the IC50 is the midpoint of a concentration-inhibition curve.

The target in data set [1] is T1, Calcitonin receptor (Homo sapiens, UniProt P30988).
T1 sequence (P30988 whole entry): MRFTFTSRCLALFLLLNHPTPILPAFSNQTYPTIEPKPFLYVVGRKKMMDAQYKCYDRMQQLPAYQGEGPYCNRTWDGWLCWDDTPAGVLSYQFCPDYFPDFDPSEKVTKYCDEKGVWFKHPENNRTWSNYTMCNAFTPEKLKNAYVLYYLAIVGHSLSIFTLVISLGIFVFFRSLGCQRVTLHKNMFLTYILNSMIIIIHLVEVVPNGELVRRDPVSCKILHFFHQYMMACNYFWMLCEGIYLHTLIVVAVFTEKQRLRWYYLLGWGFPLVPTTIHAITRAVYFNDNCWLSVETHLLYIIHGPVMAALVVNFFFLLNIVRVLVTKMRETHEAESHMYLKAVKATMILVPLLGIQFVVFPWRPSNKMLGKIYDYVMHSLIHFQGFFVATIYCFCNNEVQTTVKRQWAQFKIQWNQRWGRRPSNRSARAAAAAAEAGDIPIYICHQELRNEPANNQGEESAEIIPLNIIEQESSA
As to the kind of experiment: Agonist activity at human calcitonin receptor expressed in BHK570 cells assessed as increase in intracellular cAMP concentration incubated for 3 hrs in presence of 10% FBS by CRE luciferase reporter gene assay. Type of data set: functional, cell-based. On the technique in general: Reporter assays use an easily measured gene product as a stand-in for the process of interest.

A short description of data set [2]: Solubility in 100 mM bistrispropane buffer at pH 6.5 incubated for 18 hrs by UPLC analysis. Type of data set: physicochemical.
Data set [3] is described as follows: Solubility in 100 mM glycylglycine buffer at pH 3.0 incubated for 18 hrs by UPLC analysis. Type of data set: physicochemical.
Data set [4] can be described thus: Solubility in 100 mM bistrispropane buffer at pH 7.0 incubated for 18 hrs by UPLC analysis. Type of data set: physicochemical.
Data set [5] concerns the target T2, Amylin receptor AMY3; CALCR/RAMP3 (Homo sapiens, UniProt O60896+P30988).
T2 sequence (P30988 whole entry): T1 sequence (P30988 whole entry)
T2 sequence (O60896 whole entry): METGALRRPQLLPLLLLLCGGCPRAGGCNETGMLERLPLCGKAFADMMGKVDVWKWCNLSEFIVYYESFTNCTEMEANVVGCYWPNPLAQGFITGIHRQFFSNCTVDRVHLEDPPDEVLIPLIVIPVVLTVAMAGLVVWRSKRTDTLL
As to the kind of experiment: Agonist activity at human amylin receptor expressed in BHK570 cells co-expressing RAMP3 assessed as increase in intracellular cAMP concentration incubated for 3 hrs in presence of 10% FBS by CRE luciferase reporter gene assay. Type of data set: functional, cell-based.

For data set [6], the system named is Rattus norvegicus. Briefly: Reduction in food intake in Sprague-Dawley rat at 3 nmol/kg measured 0 to 24 hrs post dose relative to control. Further details: scale not given: the % may be the effect or the level left. Type of data set: functional.
Data set [7] in a line: Stability in pH 7.5 buffer assessed as compound recovery at 1 uM by Thioflavin T based fluorescence assay. Type of data set: physicochemical. The conditions noted are these: read-out: Drug recovery.
Data set [8] can be described thus: Solubility in 100 mM bistrispropane buffer at pH 6.0 incubated for 18 hrs by UPLC analysis. Type of data set: physicochemical.
Data set [9] is described as follows: Solubility in 100 mM bistrispropane buffer at pH 8.0 incubated for 18 hrs by UPLC analysis. Type of data set: physicochemical.
The nature of data set [10]: Solubility in 100 mM bistrispropane buffer at pH 7.5 incubated for 18 hrs by UPLC analysis. Type of data set: physicochemical.
The nature of data set [11]: Stability in pH 7.5 buffer assessed as lag time for fibril formation at 1 uM by Thioflavin T based fluorescence assay. Type of data set: physicochemical. The conditions noted are these: pH 7.5, 1 µM.
Data set [12] concerns the target T2, Amylin receptor AMY3; CALCR/RAMP3. As to the kind of experiment: Agonist activity at human amylin receptor expressed in BHK570 cells co-expressing RAMP3 assessed as increase in intracellular cAMP concentration incubated for 3 hrs in absence of albumin by CRE luciferase reporter gene assay. Type of data set: functional, cell-based.
Data set [13] has as its system Rattus norvegicus. As to the kind of experiment: Reduction in food intake in Sprague-Dawley rat at 3 nmol/kg measured 24 to 48 hrs post dose relative to control. Type of data set: functional. Further details: scale not given: the % may be the effect or the level left.
Data set [14] can be described thus: Solubility in 100 mM glycylglycine buffer at pH 4.0 incubated for 18 hrs by UPLC analysis. Type of data set: physicochemical.
Data set [15] in a line: Solubility in 100 mM glycylglycine buffer at pH 5.0 incubated for 18 hrs by UPLC analysis. Type of data set: physicochemical.
In data set [16] the target is T1, Calcitonin receptor. Briefly: Agonist activity at human calcitonin receptor expressed in BHK570 cells assessed as increase in intracellular cAMP concentration incubated for 3 hrs in absence of albumin by CRE luciferase reporter gene assay. Type of data set: functional, cell-based.
The target of data set [17] is T2, Amylin receptor AMY3; CALCR/RAMP3. As to the kind of experiment: Displacement of [125I]-labeled rat amylin from human amylin receptor expressed in BHK tkts13 whole cells co-expressing RAMP3 incubated for 60 mins by scintillation proximity assay. Type of data set: cell-based.

Numbered stars: 1 amine (or outer) side, 2 acyl side, 3 side chain; on linkers, the order of the positions; unused ones are H or OH. Peptide text beside a SMILES is read from it. * marks the point of attachment. C20 diacid = O=C(O)CCCCCCCCCCCCCCCCCCC(=O)*; γGlu = O=C(O)[C@H](CCC(=O)[*:2])N[*:1]

For the compound `CC(C)C[C@H](NC(=O)CC[C@H](NC(=O)CCCCCCCCCCCCCCCCCCC(=O)O)C(=O)O)C(=O)N[C@@H](CO)C(=O)NCC(=O)N[C@@H](CC(C)C)C(=O)N[C@@H](CO)C(=O)N[C@H](C(=O)N[C@@H](C)C(=O)N[C@H](C(=O)N[C@@H](CC(C)C)C(=O)NCC(=O)N[C@@H](CCCNC(=N)N)C(=O)N[C@@H](CC(C)C)C(=O)N[C@@H](CO)C(=O)N[C@@H](CCC(N)=O)C(=O)N[C@@H](CCC(=O)O)C(=O)N[C@@H](CC(C)C)C(=O)N[C@@H](Cc1cnc[nH]1)C(=O)N[C@@H](CCC(=O)O)C(=O)N[C@@H](CC(C)C)C(=O)N[C@@H](CCC(N)=O)C(=O)N[C@H](C(=O)N[C@@H](Cc1ccc(O)cc1)C(=O)N1CCC[C@H]1C(=O)N[C@@H](CCCNC(=N)N)C(=O)N[C@H](C(=O)N[C@@H](CCC(=O)O)C(=O)N[C@H](C(=O)NCC(=O)N[C@@H](CO)C(=O)N[C@@H](CCC(N)=O)C(=O)N[C@H](C(=O)N[C@@H](Cc1ccc(O)cc1)C(N)=O)[C@@H](C)O)[C@@H](C)O)[C@@H](C)O)[C@@H](C)O)C(C)C)[C@@H](C)O` ({C20 diacid-γGlu}-LSGLSTAVLGRLSQELHELQTYPRTETGSQTY-NH2), the EC50 at Calcitonin receptor [1] was 0.073 nM; in data set [5], 0.14 nM; in data set [12], 0.031 nM. For the same compound, the solubility at 18 h in data set [2], in data set [3], in [4], in data set [8], in data set [9] and in data set [10] was no less than 200 µM each time. For the same compound, the Activity with Rattus norvegicus [6] is listed as 36%; in the data set on Rattus norvegicus [13] it was 21%. For the same compound, in data set [7], the remaining at 1 µM is 100%. Besides, the Time in data set [11] was greater than 45 h.
As for `CC(C)C[C@H](NC(=O)[C@H](C)NC(=O)[C@H](C)NC(=O)[C@@H](NC(=O)[C@H](CO)NC(=O)[C@H](CC(C)C)NC(=O)[C@H](CCC(=O)O)NC(=O)[C@H](CO)NC(=O)[C@H](C)NC(=O)CC[C@H](NC(=O)CCCCCCCCCCCCCCCCCCC(=O)O)C(=O)O)[C@@H](C)O)C(=O)NCC(=O)N[C@@H](CCCCN)C(=O)N[C@@H](CC(C)C)C(=O)N[C@@H](CO)C(=O)N[C@@H](C)C(=O)N[C@@H](CCC(=O)O)C(=O)N[C@@H](CC(C)C)C(=O)N[C@@H](Cc1cnc[nH]1)C(=O)N[C@@H](CCC(=O)O)C(=O)N[C@@H](CC(C)C)C(=O)N[C@@H](C)C(=O)N[C@H](C(=O)N[C@@H](Cc1ccc(O)cc1)C(=O)N1CCC[C@H]1C(=O)N[C@@H](CCCCN)C(=O)N[C@H](C(=O)N[C@@H](CCC(=O)O)C(=O)N[C@H](C(=O)NCC(=O)N[C@@H](CO)C(=O)NCC(=O)N[C@@H](CO)C(=O)N[C@@H](Cc1ccc(O)cc1)C(N)=O)[C@@H](C)O)[C@@H](C)O)[C@@H](C)O` ({C20 diacid-γGlu}-ASELSTAALGKLSAELHELATYPKTETGSGSY-NH2), the EC50 at Calcitonin receptor [1] was 0.073 nM; in [5], 0.093 nM; on Calcitonin receptor [16] it was 0.037 nM; in [12], 0.051 nM. For the same compound, the solubility at 18 h in data set [14], in data set [2], in data set [3], in [4], in data set [15] and in data set [8] was no less than 200 µM in each case. For the same compound, the solubility at 18 h in [9] and in [10] was no less than 200 µM throughout. Besides, the remaining at 1 µM in data set [7] came out at 100%. The Time in data set [11] turned out to be 0 h. For the same compound, in data set [17], the IC50 is 0.588 nM.
For the compound `CC(C)C[C@H](NC(=O)CNC(=O)[C@H](CO)NC(=O)[C@H](C)NC(=O)CC[C@H](NC(=O)CCCCCCCCCCCCCCCCCCC(=O)O)C(=O)O)C(=O)N[C@@H](CO)C(=O)N[C@H](C(=O)N[C@@H](C)C(=O)N[C@H](C(=O)N[C@@H](CC(C)C)C(=O)NCC(=O)N[C@@H](CCCNC(=N)N)C(=O)N[C@@H](CC(C)C)C(=O)N[C@@H](CO)C(=O)N[C@@H](CCC(N)=O)C(=O)N[C@@H](CCC(=O)O)C(=O)N[C@@H](CC(C)C)C(=O)N[C@@H](Cc1cnc[nH]1)C(=O)N[C@@H](CCC(=O)O)C(=O)N[C@@H](CC(C)C)C(=O)N[C@@H](CCC(N)=O)C(=O)N[C@H](C(=O)N[C@@H](Cc1ccc(O)cc1)C(=O)N1CCC[C@H]1C(=O)N[C@@H](CCCNC(=N)N)C(=O)N[C@H](C(=O)N[C@@H](CCC(=O)O)C(=O)N[C@H](C(=O)NCC(=O)N[C@@H](CO)C(=O)NCC(=O)N[C@H](C(=O)N[C@@H](Cc1ccc(O)cc1)C(N)=O)[C@@H](C)O)[C@@H](C)O)[C@@H](C)O)[C@@H](C)O)C(C)C)[C@@H](C)O`, the EC50 was 0.054 nM at Calcitonin receptor [1], 0.105 nM in data set [5], 0.065 nM on Calcitonin receptor [16] and 0.057 nM in data set [12]. In [3], this compound returned a solubility at 18 h of no less than 200 µM. Moreover, in data set [7], the remaining at 1 µM is 23%. The Time in data set [11] is 0 h. Besides, the Activity in the data set with Rattus norvegicus [13] came to 15%.
Take `CC(C)C[C@H](NC(=O)[C@H](C)NC(=O)[C@H](C)NC(=O)[C@@H](NC(=O)[C@H](CO)NC(=O)[C@H](CC(C)C)NC(=O)[C@H](CCC(=O)O)NC(=O)[C@H](CO)NC(=O)[C@H](C)NC(=O)CC[C@H](NC(=O)CCCCCCCCCCCCCCCCCCC(=O)O)C(=O)O)[C@@H](C)O)C(=O)NCC(=O)N[C@@H](CCCNC(=N)N)C(=O)N[C@@H](CC(C)C)C(=O)N[C@@H](CO)C(=O)N[C@@H](C)C(=O)N[C@@H](CCC(=O)O)C(=O)N[C@@H](CC(C)C)C(=O)N[C@@H](Cc1cnc[nH]1)C(=O)N[C@@H](CCC(=O)O)C(=O)N[C@@H](CC(C)C)C(=O)N[C@@H](C)C(=O)N[C@H](C(=O)N[C@@H](CC(C)C)C(=O)N1CCC[C@H]1C(=O)N[C@@H](CCCNC(=N)N)C(=O)N[C@H](C(=O)N[C@@H](CCC(=O)O)C(=O)N[C@H](C(=O)NCC(=O)N[C@@H](CO)C(=O)NCC(=O)N[C@@H](CO)C(=O)NCC(N)=O)[C@@H](C)O)[C@@H](C)O)[C@@H](C)O` ({C20 diacid-γGlu}-ASELSTAALGRLSAELHELATLPRTETGSGSG-NH2): the concentration giving a half-maximal response (EC50) on Calcitonin receptor [1] is 0.239 nM; in data set [5], 0.435 nM; on Calcitonin receptor [16], 0.066 nM; in data set [12] it was 0.142 nM. For the same compound, the solubility at 18 h in [14], in data set [2], in data set [3], in data set [4], in data set [15] and in data set [8] was no less than 200 µM throughout. For the same compound, the solubility at 18 h in [9] and in data set [10] was no less than 200 µM in each case. Moreover, the remaining at 1 µM in data set [7] was 100%. The Time in data set [11] was greater than 45 h. The IC50 in [17] is 4.36 nM.

The values are drawn from ChEMBL document CHEMBL4420076, “Amylin and calcitonin receptor agonist” (2017).
